For one data set, the system named is PDE4. In words: Evaluation of PDE4 inhibitory activity, scintillation proximity assay. The data set is classed as biochemical. The settings on record: scintillation proximity assay; read-out: PDE4 Inhibitory Activity (Evaluation 1; concentration for the inhibition rate of 50%). The essentials:
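SPA with [2,8-3H]-cAMP and diluted PDE4 enzyme preparation in 50 mM Tris-HCl pH 7.4, 8.3 mM MgCl2, 1.7 mM EGTA, 3 mg/mL BSA, 120 min at room temperature. Product captured on ZnSO4-containing YSi-SPA beads, scintillation counted; IC50 from inhibition curves vs DMSO control and no-enzyme blank.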
A general note: Scintillation proximity formats need no separation of bound from free tracer.

Data set [1] in a line: Hepatic metabolic stability (rat liver microsome method). It is filed as in vitro ADME. As to conditions: rat liver microsomes 0.5 mg/mL, test substance 1 μM, NADPH 1 mM, 37° C., 30 minutes. The procedure:
Metabolic stability in rat liver microsomes was evaluated by the following method. First, in 100 mM of potassium phosphate buffer solution (pH 7.4), liver microsomes (concentration at reaction: 0.5 mg/mL) and the test substance (concentration at reaction: 1 μM) were preincubated at 37° C. Five minutes later, 100 mM of potassium phosphate buffer (pH 7.4) solution of NADPH (concentration at reaction: 1 mM) was mixed thereto to start the reaction. After a predetermined time passed, acetonitrile was mixed to the reaction mixture to stop the reaction. Here, the reaction time was 0 and 30 minutes, and drug concentration measurement was performed for each time period using LC-MS. The % remaining value of the test compound was calculated from the value for 0 minutes and the value for 30 minutes, using the calculation formula below: % Remaining=(Value for 30 Minutes/Value for 0 Minutes)×100
The results of measuring the rat liver microsome metabolic Stability (% remaining for 30-minute reaction) for the test compound by the above method were evaluated in accordance with the following evaluated basis; A: a % remaining rate of 75% or more, B: 60% or more and less than 75%, C: 45% or more and less than 60%, and D: less than 45%.
On the technique in general: Liver microsomes are vesicles of endoplasmic reticulum, rich in cytochrome P450 enzymes.

Where only a bound is given, the exact number is not on record here.

With `OCC(F)(F)Oc1ccc(-c2ccc(F)cn2)c2oc(N3CC4CC(C3)N4)nc12` [Example 319, 2-((2-(3,6-Diazabicyclo[3.1.1]heptan-3-yl)-7-(5-fluoropyridin-2-yl)benzo[d]oxazol-4-yl)oxy)-2,2-difluoroethan-1-ol], in the data set with PDE4, the IC50 is less than 100 nM. For the same molecule, the “Residual ratio (% remaining for 30-minute reaction)” value in data set [1] is reported as “A (A: a % remaining rate of 75% or more)”.
The like results for `CC(C)(O)C(F)(F)Oc1ccc(-c2ncco2)c2oc(N3CC4CCC(C3)N4)nc12` [Example 321, 1-((2-(3,8-Diazabicyclo[3.2.1]octan-3-yl)-7-(oxazol-2-yl)benzo[d]oxazol-4-yl)oxy)-1,1-difluoro-2-methylpropan-2-ol] were, in that order, less than 100 nM and “A (A: a % remaining rate of 75% or more)”.
The like results for `CC(C)(O)C(F)(F)Oc1ccc(-n2nccn2)c2oc(N3CC4CCC(C3)N4)nc12` [Example 322, 1-((2-(3,8-Diazabicyclo[3.2.1]octan-3-yl)-7-(2H-1,2,3-triazol-2-yl)benzo[d]oxazol-4-yl)oxy)-1,1-difluoro-2-methylpropan-2-ol] were, in that order, less than 100 nM and “A (A: a % remaining rate of 75% or more)”.
On to `c1csc(-c2ccc(O[C@H]3CCOC3)c3nc(N4CC5CC(C4)N5)oc23)n1` [Example 323, 2-(3,6-Diazabicyclo[3.1.1]heptan-3-yl)-4-(((S)-tetrahydrofuran-3-yl)oxy)-7-(thiazol-2-yl)benzo[d]oxazole], for which the IC50 in the data set on PDE4 was less than 100 nM. Besides, in data set [1], the “Residual ratio (% remaining for 30-minute reaction)” value is “B (B: 60% or more and less than 75%)”.
As for `c1csc(-c2ccc(O[C@@H]3CCOC3)c3nc(N4CC5CC(C4)N5)oc23)n1` [Example 324, 2-(3,6-Diazabicyclo[3.1.1]heptan-3-yl)-4-(((R)-tetrahydrofuran-3-yl)oxy)-7-(thiazol-2-yl)benzo[d]oxazole], the IC50 in the data set with PDE4 is less than 100 nM. For the same molecule, the “Residual ratio (% remaining for 30-minute reaction)” value in data set [1] is reported as “A (A: a % remaining rate of 75% or more)”.
For the molecule `c1csc(-c2ccc(OC3COC3)c3nc(N4CC5CC(C4)N5)oc23)n1` [Example 325, 2-(3,6-Diazabicyclo[3.1.1]heptan-3-yl)-4-(oxetan-3-yloxy)-7-(thiazol-2-yl)benzo[d]oxazole], the IC50 with PDE4 was less than 100 nM. Further, the “Residual ratio (% remaining for 30-minute reaction)” value in data set [1] was “A (A: a % remaining rate of 75% or more)”.
For the molecule `CC(C)(O)C(F)(F)Oc1ccc(-c2ncns2)c2oc(N3CC4CCC(C3)N4)nc12` [Example 327, 1-((2-(3,8-Diazabicyclo[3.2.1]octan-3-yl)-7-(1,2,4-thiadiazol-5-yl)benzo[d]oxazol-4-yl)oxy)-1,1-difluoro-2-methylpropan-2-ol], the IC50 with PDE4 was less than 100 nM. The “Residual ratio (% remaining for 30-minute reaction)” value in data set [1] was “B (B: 60% or more and less than 75%)”.
With `Cn1ccc(-c2ccc(OC(F)(F)C(C)(C)O)c3nc(N4CC5CCC(C4)N5)oc23)n1` [Example 328, 1-((2-(3,8-Diazabicyclo[3.2.1]octan-3-yl)-7-(1-methyl-1H-pyrazol-3-yl)benzo[d]oxazol-4-yl)oxy)-1,1-difluoro-2-methylpropan-2-ol], in the data set on PDE4, the IC50 is less than 100 nM. For the same molecule, the “Residual ratio (% remaining for 30-minute reaction)” value in data set [1] is given as “A (A: a % remaining rate of 75% or more)”.
The like results for `CC(C)(O)C(F)(F)Oc1ccc(-c2ccc(F)cn2)c2oc(N3CC4CC(C3)N4)nc12` [Example 329, 1-((2-(3,6-Diazabicyclo[3.1.1]heptan-3-yl)-7-(5-fluoropyridin-2-yl)benzo[d]oxazol-4-yl)oxy)-1,1-difluoro-2-methylpropan-2-ol] were, in that order, less than 100 nM and “A (A: a % remaining rate of 75% or more)”.
The like results for `CC(C)(O)C(F)(F)Oc1ccc(-c2ncccn2)c2oc(N3CC4CCC(C3)N4)nc12` [Example 330, 1-((2-(3,8-Diazabicyclo[3.2.1]octan-3-yl)-7-(pyrimidin-2-yl)benzo[d]oxazol-4-yl)oxy)-1,1-difluoro-2-methylpropan-2-ol] were, in that order, less than 100 nM and “A (A: a % remaining rate of 75% or more)”.
With `CC(C)(O)C(F)(F)Oc1ccc(-c2ccsn2)c2oc(N3CC4CCC(C3)N4)nc12` [Example 331, 1-((2-(3,8-Diazabicyclo[3.2.1]octan-3-yl)-7-(isothiazol-3-yl)benzo[d]oxazol-4-yl)oxy)-1,1-difluoro-2-methylpropan-2-ol], the IC50 with PDE4 is less than 100 nM. Moreover, the “Residual ratio (% remaining for 30-minute reaction)” value in data set [1] is “B (B: 60% or more and less than 75%)”.
Regarding `CC(C)(O)C(F)(F)Oc1ccc(-c2ccc(F)cn2)c2oc(N3CC4CCC(C3)N4)nc12` [Example 332, 1-((2-(3,8-Diazabicyclo[3.2.1]octan-3-yl)-7-(5-fluoropyridin-2-yl)benzo[d]oxazol-4-yl)oxy)-1,1-difluoro-2-methylpropan-2-ol], the IC50 with PDE4 is less than 100 nM. Moreover, the “Residual ratio (% remaining for 30-minute reaction)” value in data set [1] was “A (A: a % remaining rate of 75% or more)”.
As to `Cc1nsc(-c2ccc(OC(F)(F)C(C)(C)O)c3nc(N4CC5CCC(C4)N5)oc23)n1` [Example 333, 1-((2-(3,8-Diazabicyclo[3.2.1]octan-3-yl)-7-(3-methyl-1,2,4-thiadiazol-5-yl)benzo[d]oxazol-4-yl)oxy)-1,1-difluoro-2-methylpropan-2-ol], in the data set with PDE4, the IC50 was in the range of 100 to 1000 nM. In data set [1], the “Residual ratio (% remaining for 30-minute reaction)” value was “B (B: 60% or more and less than 75%)”.
Take `O=S(=O)(c1ccc(-c2nccs2)c2oc(N3CC4CC(C3)N4)nc12)C(F)(F)F` [Example 334, 2-(3,6-Diazabicyclo[3.1.1]heptan-3-yl)-7-(thiazol-2-yl)-4-((trifluoromethyl)sulfonyl)benzo[d]oxazole]: in the data set with PDE4, the IC50 was less than 100 nM. Besides, the “Residual ratio (% remaining for 30-minute reaction)” value in data set [1] was “B (B: 60% or more and less than 75%)”.
As to `N#Cc1ccc(-c2nccs2)c2oc(N3CC4CC(C3)N4)nc12` [Example 335, 2-(3,6-Diazabicyclo[3.1.1]heptan-3-yl)-7-(thiazol-2-yl)benzo[d]oxazole-4-carbonitrile], the IC50 in the data set with PDE4 was less than 100 nM. The “Residual ratio (% remaining for 30-minute reaction)” value in data set [1] is listed as “A (A: a % remaining rate of 75% or more)”.
Regarding `FC(F)(F)c1ccc(Oc2ccc(-c3nccs3)c3oc(N4CC5CC(C4)N5)nc23)nc1` [Example 336, 2-(3,6-Diazabicyclo[3.1.1]heptan-3-yl)-7-(thiazol-2-yl)-4-((5-(trifluoromethyl)pyridin-2-yl)oxy)benzo[d]oxazole], the IC50 in the data set on PDE4 is less than 100 nM. For the same molecule, the “Residual ratio (% remaining for 30-minute reaction)” value in data set [1] was “B (B: 60% or more and less than 75%)”.
On to `c1cnc(Oc2ccc(-c3nccs3)c3oc(N4CC5CC(C4)N5)nc23)nc1` [Example 338, 2-(3,6-Diazabicyclo[3.1.1]heptan-3-yl)-4-(pyrimidin-2-yloxy)-7-(thiazol-2-yl)benzo[d]oxazole], for which the IC50 in the data set with PDE4 was less than 100 nM. Moreover, the “Residual ratio (% remaining for 30-minute reaction)” value in data set [1] is on record as “A (A: a % remaining rate of 75% or more)”.
In the case of `c1cnc(Oc2ccc(-c3nccs3)c3oc(N4CC5CC(C4)N5)nc23)cn1` [Example 339, 2-(3,6-Diazabicyclo[3.1.1]heptan-3-yl)-4-(pyrazin-2-yloxy)-7-(thiazol-2-yl)benzo[d]oxazole], in the data set on PDE4, the IC50 is less than 100 nM. Also, the “Residual ratio (% remaining for 30-minute reaction)” value in data set [1] was “B (B: 60% or more and less than 75%)”.
`Cc1cc(C(F)(F)F)c(Oc2ccc(-c3nccs3)c3oc(N4CC5CC(C4)N5)nc23)nn1` [Example 340, 2-(3,6-Diazabicyclo[3.1.1]heptan-3-yl)-4-((6-methyl-4-(trifluoromethyl)pyridazin-3-yl)oxy)-7-(thiazol-2-yl)benzo[d]oxazole]: the IC50 in the data set on PDE4 is less than 100 nM. Besides, the “Residual ratio (% remaining for 30-minute reaction)” value in data set [1] was “A (A: a % remaining rate of 75% or more)”.
Consider `OCc1ccc(Oc2ccc(-c3nccs3)c3oc(N4CC5CC(C4)N5)nc23)nc1` [Example 341, (6-((2-(3,6-Diazabicyclo[3.1.1]heptan-3-yl)-7-(thiazol-2-yl)benzo[d]oxazol-4-yl)oxy)pyridin-3-yl)methanol], for which the IC50 with PDE4 is less than 100 nM. Also, the “Residual ratio (% remaining for 30-minute reaction)” value in data set [1] is “A (A: a % remaining rate of 75% or more)”.
Regarding `OCc1cnc(Oc2ccc(-c3nccs3)c3oc(N4CC5CC(C4)N5)nc23)c(C(F)(F)F)c1` [Example 342, (6-((2-(3,6-Diazabicyclo[3.1.1]heptan-3-yl)-7-(thiazol-2-yl)benzo[d]oxazol-4-yl)oxy)-5-(trifluoromethyl)pyridin-3-yl)methanol], in the data set with PDE4, the IC50 is less than 100 nM. Further, the “Residual ratio (% remaining for 30-minute reaction)” value in data set [1] was “B (B: 60% or more and less than 75%)”.
As to `FC(F)(F)Oc1ccc(Oc2ccc(-c3nccs3)c3oc(N4CC5CC(C4)N5)nc23)nc1` [Example 343, 2-(3,6-Diazabicyclo[3.1.1]heptan-3-yl)-7-(thiazol-2-yl)-4-((5-(trifluoromethoxy)pyridin-2-yl)oxy)benzo[d]oxazole], the IC50 in the data set on PDE4 was less than 100 nM. Also, the “Residual ratio (% remaining for 30-minute reaction)” value in data set [1] was “B (B: 60% or more and less than 75%)”.

The values are drawn from patent US12239643B2, “Therapeutic agent for inflammatory diseases, autoimmune diseases, fibrotic diseases, and cancer diseases” (MEIJI SEIKA PHARMA CO., LTD., priority 2018, dated 2025).
